Common to all, as to format: physicochemical
Data set [1] is described as follows: Absorption spectrum of toluene solution (maximum absorption, gram absorption coefficient). The method, then:
A toluene solution of the compound obtained in this way had maximum absorption at 734.0 nm, and the gram absorption coefficient thereof was 1.21×10^5 mL/g·cm. The absorption spectrum chart thereof is illustrated in FIG. 1.

Data set [2] can be described thus: Solubility in organic solvent (cyclopentanone). The settings on record: about 10 wt % dispersion, room temperature, 0.2 μm filter; no residue = 10 wt % or more. The method, then: The solubility of the phthalocyanine compound with respect to cyclopentanone was measured by the following method.
Cyclopentanone was added to about 1 g of the phthalocyanine compound such that the total weight thereof became about 10 g, and the obtained solution was irradiated with ultrasonic waves for about 30 minutes and then stirred for 2 hours at room temperature, thereby preparing a dispersion liquid of about 10 wt %.
The dispersion liquid was filtered through a membrane filter (0.2 μm), the substance obtained by filtration was dried for 1 hour in a drier at 60° C., and then the weight of the substance obtained by filtration was measured.
The solubility of the phthalocyanine compound in a solvent is expressed by the following equation. Solubility (wt %)=(W0−W1)/W0
W0 represents the correct weight of the phthalocyanine not yet being treated, and W1 represents the weight of the substance obtained by filtration (dissolved phthalocyanine compound residue) having been dried.

Data set [3] is described as follows: Visible light transmittance of chloroform solution. The settings on record: spectrum converted to transmittance 10% at near-infrared maximum absorption wavelength. The method, then:
The visible light transmittance of the phthalocyanine-based compound of the present invention and the comparative example compounds was measured by the following measurement method.
Each of the phthalocyanine compounds ([…]) and approximately 90 mL of chloroform were put into a 100 mL volumetric flask, and the solution in the flask was irradiated with ultrasonic waves for 30 minutes and left to stand for 2 hours at room temperature. Then, chloroform was added thereto such that the meniscus of the solution matched up with the calibration mark on the volumetric flask, thereby preparing a 10 mg/L phthalocyanine solution. The prepared solution was put into a 1 cm×1 cm cell made of PYREX (registered trademark), and the absorption spectrum thereof was measured using a spectrophotometer (produced by Hitachi, Ltd.: Spectrophotometer U-3500).
The absorption spectrum measured as above was converted such that the absorbance became 1.0, that is, the transmittance became 10% at the maximum absorption wavelength in a near-infrared range, thereby obtaining a transmission spectrum. […] At 460 nm, the transmittance of the compound of the present invention was approximately the same as the transmittance of Comparative Examples 1 and 2.

With `COCCCCCCCCc1ccc(CCCCCCCCOC)c2c1-c1nc-2nc2[n-]c(nc3nc(nc4[n-]c(n1)c1c(CCCCCCCCOC)ccc(CCCCCCCCOC)c41)-c1c(CCCCCCCCOC)ccc(CCCCCCCCOC)c1-3)c1c(CCCCCCCCOC)ccc(CCCCCCCCOC)c21.[O]=[V+2]` [Comparative Example Compound (b), reference compound], the maximum absorption in data set [1] turned out to be 737.5 nm. Besides, the gram absorption coefficient in data set [1] (at maximum absorption) is 105000 mL/g/cm. Besides, the “Solubility to cyclopentanone (wt %)” value in data set [2] is given as at most 1% wt %. Also, in data set [3], the “Transmittance (%) 460 nm” value amounted to 97.8% and the “Transmittance (%) 610 nm” value was 87.9%.

The values are drawn from US11015061B2, “Phthalocyanine-based compound and uses of same” (YAMAMOTO CHEMICALS, INC., priority 2017, dated 2021).
